Values of other authors, collected in patent US7214684B2, “Methods for the treatment of allergic rhinitis” (Sepracor Inc., priority 1994, dated 2007).

Columns and labels:
[1] = system: melanoma and fibrosarcoma tumors; conditions: Brandes et al. 1994
H-2 histamine receptor = H-2 histamine receptor (Homo sapiens, UniProt P25021); conditions: H-2 receptor-mediated response
Sequence of H-2 histamine receptor (P25021 whole entry): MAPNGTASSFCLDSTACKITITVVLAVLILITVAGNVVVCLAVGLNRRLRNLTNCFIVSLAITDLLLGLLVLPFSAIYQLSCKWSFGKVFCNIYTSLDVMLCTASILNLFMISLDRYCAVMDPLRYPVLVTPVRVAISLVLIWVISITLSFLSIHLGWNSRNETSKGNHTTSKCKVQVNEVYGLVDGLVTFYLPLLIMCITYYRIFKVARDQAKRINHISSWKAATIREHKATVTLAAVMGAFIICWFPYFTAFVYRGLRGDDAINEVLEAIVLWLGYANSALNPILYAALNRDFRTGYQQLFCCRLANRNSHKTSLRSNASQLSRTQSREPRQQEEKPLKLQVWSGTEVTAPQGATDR

| effect on the chronotropic effect of histamine on atria (H-2 histamine receptor) | Compound | association with tumor growth [1] |
| --- | --- | --- |
| nor does it alter | CCOC(=O)N1CCC(=C2c3ccc(Cl)cc3CCc3cccnc32)CC1 [Loratadine] | associated with growth of both melanoma and fibrosarcoma tumors |
| – | COc1ccc(CCN2CCC(Nc3nc4ccccc4n3Cc3ccc(F)cc3)CC2)cc1 [astemizole] | associated with growth of both melanoma and fibrosarcoma tumors |
